Experimental data published in ChEMBL document CHEMBL1201862, “PubChem BioAssay data set” (2004).
Active and inactive are the calls of the source. Cut-off read from the data, not from the text of the source, for most assays here: actives have a measured IC50 and inactives only a lower limit.

Legend:
[1] = target: G-protein coupled receptor 55 (Homo sapiens, UniProt Q9Y2T6); assay: inhibition of LPI-stimulated GPR55 beta-arrestin translocation – imaging, U2OS, beta-arrestin-GFP, LPI agonist, primary screen (AID 2013); assay type: functional;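 note: antagonist potency measured as reduced agonist-driven arrestin aggregation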
[2] = target: DNA dC->dU-editing enzyme APOBEC-3G (Homo sapiens, UniProt Q9HC16); assay: Dose Response confirmation of small molecule APOBEC3G DNA Deaminase Inhibitors via a fluorescence-based single-stranded DNA deaminase assay. [Related pubchem assays (depositor defined):AID493012, AID493028]; assay type: functional
[3] = viability of uninfected HEp-2 cells – cell-based, HTS, cytotoxicity control for RSV inhibitor project, dose response (AID 2410); assay type: functional; conditions: human respiratory syncytial virus
CAAX prenyl protease 2 = CAAX prenyl protease 2 (Saccharomyces cerevisiae S288c, UniProt Q03530); assay type: biochemical
[4] = target: T1, Nucleotide-binding oligomerization domain-containing protein 1 (Homo sapiens, UniProt Q9Y239); assay: blockers of NOD1 pathway activity – revised, SAR follow-up (AID 2333); assay type: functional
T1 sequence (Q9Y239 whole entry): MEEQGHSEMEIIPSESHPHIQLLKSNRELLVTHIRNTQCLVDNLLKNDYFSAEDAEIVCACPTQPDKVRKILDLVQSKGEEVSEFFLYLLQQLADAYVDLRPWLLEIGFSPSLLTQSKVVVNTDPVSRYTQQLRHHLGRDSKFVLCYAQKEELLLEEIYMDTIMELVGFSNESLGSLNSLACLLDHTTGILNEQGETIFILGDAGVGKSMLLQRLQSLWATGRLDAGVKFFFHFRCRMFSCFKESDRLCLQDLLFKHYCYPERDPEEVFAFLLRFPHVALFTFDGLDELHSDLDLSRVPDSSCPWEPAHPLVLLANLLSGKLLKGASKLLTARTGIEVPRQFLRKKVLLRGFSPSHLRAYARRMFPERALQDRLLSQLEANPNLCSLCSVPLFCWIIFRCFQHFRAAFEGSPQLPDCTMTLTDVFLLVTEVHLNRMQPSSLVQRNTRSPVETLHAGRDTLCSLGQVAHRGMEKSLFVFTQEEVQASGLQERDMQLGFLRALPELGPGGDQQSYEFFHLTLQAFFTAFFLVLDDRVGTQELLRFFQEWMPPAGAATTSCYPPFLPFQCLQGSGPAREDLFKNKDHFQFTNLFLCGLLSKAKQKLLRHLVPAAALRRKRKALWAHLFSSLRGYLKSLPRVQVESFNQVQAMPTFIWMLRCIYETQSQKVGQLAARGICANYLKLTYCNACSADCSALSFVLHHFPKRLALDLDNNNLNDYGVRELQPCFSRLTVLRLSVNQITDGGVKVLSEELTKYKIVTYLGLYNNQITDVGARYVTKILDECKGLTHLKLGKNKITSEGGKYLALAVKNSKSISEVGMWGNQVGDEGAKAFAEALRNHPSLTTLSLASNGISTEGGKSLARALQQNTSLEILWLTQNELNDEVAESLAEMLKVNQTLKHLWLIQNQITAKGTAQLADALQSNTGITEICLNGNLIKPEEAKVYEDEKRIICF

[5] = target: Nucleotide-binding oligomerization domain-containing protein 2 (Homo sapiens, UniProt Q9HC29); assay: PubChem AID 2334; assay type: functional
HEK293 = assay: cells; conditions: Homo sapiens;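 note: cells exposed to compound for 14 hours overnight before viability readout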
Tumor necrosis factor = Tumor necrosis factor (Homo sapiens, UniProt P01375); assay: analog potency on TNFa NF-kB signaling – cell-based, revised, SAR follow-up (AID 2337); assay type: functional
[6] = target: T2, Tyrosine-protein phosphatase non-receptor type 7 (Homo sapiens, UniProt P35236); assay: redox-active compounds inhibiting HePTP phosphatase – biochemical, fluorescence, mechanism study (AID 2068); assay type: functional
T2 sequence (P35236 whole entry): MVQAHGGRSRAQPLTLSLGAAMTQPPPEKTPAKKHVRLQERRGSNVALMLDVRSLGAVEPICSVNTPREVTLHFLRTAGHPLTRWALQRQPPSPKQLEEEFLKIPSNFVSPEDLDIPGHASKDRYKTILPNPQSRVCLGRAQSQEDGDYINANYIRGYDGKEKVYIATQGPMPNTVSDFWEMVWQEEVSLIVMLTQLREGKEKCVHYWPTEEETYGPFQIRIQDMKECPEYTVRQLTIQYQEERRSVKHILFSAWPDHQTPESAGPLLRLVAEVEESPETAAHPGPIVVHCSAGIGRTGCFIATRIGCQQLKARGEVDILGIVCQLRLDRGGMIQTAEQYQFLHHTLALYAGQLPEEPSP

G-protein coupled receptor 55, sequence (Q9Y2T6 whole entry): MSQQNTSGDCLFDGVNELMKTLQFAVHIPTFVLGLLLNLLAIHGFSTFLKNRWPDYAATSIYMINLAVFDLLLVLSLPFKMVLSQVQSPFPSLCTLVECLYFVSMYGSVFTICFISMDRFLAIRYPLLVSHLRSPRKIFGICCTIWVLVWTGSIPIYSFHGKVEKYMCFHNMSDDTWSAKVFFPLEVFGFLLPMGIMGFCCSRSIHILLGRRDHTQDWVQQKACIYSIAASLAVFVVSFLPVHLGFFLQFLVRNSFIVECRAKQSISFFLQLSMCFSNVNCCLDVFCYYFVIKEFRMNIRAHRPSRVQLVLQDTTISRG
Tumor necrosis factor, sequence (P01375 whole entry): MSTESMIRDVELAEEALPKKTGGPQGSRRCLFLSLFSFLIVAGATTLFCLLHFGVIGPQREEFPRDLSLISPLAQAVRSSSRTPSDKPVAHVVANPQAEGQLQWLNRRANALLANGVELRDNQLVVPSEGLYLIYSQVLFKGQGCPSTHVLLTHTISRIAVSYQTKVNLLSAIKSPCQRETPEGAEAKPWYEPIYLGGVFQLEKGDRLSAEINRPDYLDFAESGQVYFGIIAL
Nucleotide-binding oligomerization domain-containing protein 2, sequence (Q9HC29 whole entry, the tested form may be a part): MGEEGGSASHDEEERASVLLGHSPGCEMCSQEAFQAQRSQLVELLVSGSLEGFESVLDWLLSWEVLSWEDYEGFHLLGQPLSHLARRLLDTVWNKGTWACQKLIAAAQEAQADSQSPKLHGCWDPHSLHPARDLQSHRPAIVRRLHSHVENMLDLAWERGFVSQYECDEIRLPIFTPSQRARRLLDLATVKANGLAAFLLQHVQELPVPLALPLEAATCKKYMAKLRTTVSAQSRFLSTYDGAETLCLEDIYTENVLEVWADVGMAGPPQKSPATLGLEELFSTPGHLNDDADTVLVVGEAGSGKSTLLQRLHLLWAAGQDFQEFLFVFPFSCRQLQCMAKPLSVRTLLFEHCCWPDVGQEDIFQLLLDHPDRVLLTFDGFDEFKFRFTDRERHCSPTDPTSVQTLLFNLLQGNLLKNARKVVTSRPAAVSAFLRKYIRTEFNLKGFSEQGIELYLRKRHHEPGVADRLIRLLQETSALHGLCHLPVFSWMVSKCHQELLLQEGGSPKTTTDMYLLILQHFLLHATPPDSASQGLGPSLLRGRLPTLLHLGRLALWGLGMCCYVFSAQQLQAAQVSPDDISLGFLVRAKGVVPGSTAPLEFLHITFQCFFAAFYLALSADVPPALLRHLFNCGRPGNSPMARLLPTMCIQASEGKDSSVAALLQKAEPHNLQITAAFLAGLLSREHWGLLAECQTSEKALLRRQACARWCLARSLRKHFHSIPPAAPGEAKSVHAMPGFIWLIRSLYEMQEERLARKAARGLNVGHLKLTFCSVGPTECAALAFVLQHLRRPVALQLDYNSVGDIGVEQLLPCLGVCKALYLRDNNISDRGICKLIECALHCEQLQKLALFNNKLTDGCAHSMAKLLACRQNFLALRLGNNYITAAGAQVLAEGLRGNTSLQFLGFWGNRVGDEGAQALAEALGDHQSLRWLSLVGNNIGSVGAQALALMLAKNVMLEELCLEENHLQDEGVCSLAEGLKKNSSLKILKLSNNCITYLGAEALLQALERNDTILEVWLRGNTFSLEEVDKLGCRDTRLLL
CAAX prenyl protease 2, sequence (Q03530 whole entry, the tested form may be a part): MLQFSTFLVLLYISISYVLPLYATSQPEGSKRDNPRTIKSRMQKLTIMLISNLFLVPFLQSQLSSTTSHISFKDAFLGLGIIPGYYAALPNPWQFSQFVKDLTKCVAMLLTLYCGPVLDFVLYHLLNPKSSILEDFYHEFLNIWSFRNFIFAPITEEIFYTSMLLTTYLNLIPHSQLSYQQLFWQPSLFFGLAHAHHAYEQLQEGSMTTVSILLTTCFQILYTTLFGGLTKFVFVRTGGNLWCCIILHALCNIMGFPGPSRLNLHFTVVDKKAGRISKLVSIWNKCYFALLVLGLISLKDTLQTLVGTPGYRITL
DNA dC->dU-editing enzyme APOBEC-3G, sequence (Q9HC16 whole entry): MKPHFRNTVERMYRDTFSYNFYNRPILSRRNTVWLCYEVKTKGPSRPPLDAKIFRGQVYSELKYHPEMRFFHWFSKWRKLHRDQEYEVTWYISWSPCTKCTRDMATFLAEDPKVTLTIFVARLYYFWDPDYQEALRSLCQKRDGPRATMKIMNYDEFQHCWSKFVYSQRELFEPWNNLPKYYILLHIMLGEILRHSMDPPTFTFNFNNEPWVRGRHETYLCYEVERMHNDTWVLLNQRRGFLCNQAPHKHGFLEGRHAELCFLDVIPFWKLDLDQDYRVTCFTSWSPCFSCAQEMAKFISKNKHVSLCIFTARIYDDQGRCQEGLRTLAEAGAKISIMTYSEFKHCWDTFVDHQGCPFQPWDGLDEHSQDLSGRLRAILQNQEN

In the case of `CCCCOc1ccccc1NC(=O)c1scc2c1OCCO2`, the IC50 [1] is reported as 3.01 µM (active).
In the case of `c1ccc(-c2nn3c(Cn4cnc5ccccc54)nnc3s2)cc1`, the IC50 (cells) is reported as 5.46 µM (active), the IC50 [2] is reported as > 100 µM (inactive) and the CC50 [3] is reported as 42.6 µM (active).
With `COc1ccc(-c2ccc3oc(-c4ccc(OC)cc4)c(-c4ccc(OC)cc4)c3c2)cc1` the AC50 (CAAX prenyl protease 2) was 18 µM (active).
With `O=C(Nc1nc2ccccc2n1Cc1ccc(Cl)cc1)c1ccccc1` the IC50 [4] was > 20 µM (inactive), the IC50 [5] was > 20 µM (inactive) and the IC50 (HEK293) was > 20 µM (inactive). The IC50 (Tumor necrosis factor) was > 20 µM (inactive).
In the case of `O=C(Nc1ccccc1)Nc1ccc2nc(-c3ccco3)c(-c3ccco3)nc2c1`, the IC50 [6] is reported as 0.575 µM (active).
In the case of `Cc1ccc2cccc(N=Cc3c(C)[nH]n(-c4ccccc4)c3=O)c2n1`, the IC50 [4] is reported as > 20 µM (inactive), the IC50 [5] is reported as > 20 µM (inactive) and the IC50 (HEK293) is reported as > 20 µM (inactive). The IC50 (Tumor necrosis factor) was > 20 µM (inactive).
With `C#CCOc1c(Br)cc(/C=N\NC(=O)CN2CCOCC2)cc1OCC` the IC50 [1] was 3.59 µM (active).
